Where two headings read alike, the source gives them in different places. A value given as a limit tells only on which side of the number the result lay.

The record followed here is patent publication US20260184663A1, “INDENE COMPOUNDS, PHARMACEUTICAL COMPOSITIONS THEREOF, AND THEIR THERAPEUTIC APPLICATIONS” (NucMito Pharmaceuticals co. Ltd., priority 2022, published 2026).

What all share (type): cell-based
Test [1] deals with MDA-MB-231 (breast cancer). Kind of test: Antiproliferative activity (CCK-8 cell viability), MDA-MB-231. The conditions noted are these: Homo sapiens, 72 h; for inhibition at 3.3 µM: Compound concentration: 3.3 μM; for inhibition at 10 µM: Compound concentration: 10 μM; for inhibition at 30 µM: Compound concentration: 30 μM. The essentials: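 MDA-MB-231 breast cancer cells, grown in DMEM with 10% FBS, were plated in 96-well plates at 2,000-5,000 cells/well. Once attached, they were exposed to compound and incubated at 37° C. for 72 h. Viability was then measured with CCK-8 (10 μL per well, 4 h at 37° C.) by absorbance at 450 nm, relative to DMSO vehicle wells.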

In a further test the test system is HepG2 (liver cancer). Kind of test: Antiproliferative activity (CCK-8 cell viability), HepG2. The conditions noted are these: Homo sapiens, 72 h, read-out: Antiproliferative activity in cancerous cells, HepG2 (inhibition of cell growth); for inhibition at 3.3 µM: Compound concentration: 3.3 μM; for inhibition at 10 µM: Compound concentration: 10 μM; for inhibition at 30 µM: Compound concentration: 30 μM. The essentials:
(§1)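 Cells grown in DMEM (HepG2, SW480), MEM (HeLa) or F-12K (A549), each with 10% FBS, then exposed to compound at 3.3, 10 or 30 μM for 72 h at 37 °C. CCK-8 absorbance at 450 nm; viability expressed as percent of DMSO-treated cells, graded as growth inhibition bands.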

For a further test, the system named is SW480 (colon cancer). Briefly: Antiproliferative activity (CCK-8 cell viability), SW480. The conditions noted are these: Homo sapiens, 72 h; for inhibition at 3.3 µM: Compound concentration: 3.3 μM; for inhibition at 10 µM: Compound concentration: 10 μM; for inhibition at 30 µM: Compound concentration: 30 μM. The essentials:
as §1

The test system of test [2] is B16F10 (malignant melanoma). Kind of test: Antiproliferative activity (CCK-8 cell viability), B16F10. The settings on record: Mus musculus, 72 h, read-out: Antiproliferative activity in cancerous cells, B16F10 (inhibition of cell growth); for inhibition at 3.3 µM: B16-F10, Compound concentration: 3.3 μM; for inhibition at 10 µM: B16-F10, Compound concentration: 10 μM; for inhibition at 30 µM: B16-F10, Compound concentration: 30 μM. The gist of the method: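 B16F10 melanoma cells grown in DMEM with 10% FBS were plated in 96-well plates at 2,000-5,000 cells/well. After attachment they were exposed to compound in medium for 72 h at 37° C. CCK-8 solution (10 μL) was then added, and after 4 h at 37° C absorbance was read at 450 nm.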

Test [3] relates to A431 (epidermoid carcinoma). Kind of test: Antiproliferative activity (CCK-8 cell viability), A431. The settings on record: Homo sapiens, 72 h; for inhibition at 3.3 µM: A-431, Compound concentration: 3.3 μM; for inhibition at 10 µM: A-431, Compound concentration: 10 μM; for inhibition at 30 µM: A-431, Compound concentration: 30 μM. The gist of the method:
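A431 epidermoid carcinoma cells grown in DMEM with 10% FBS were plated at 2,000-5,000 cells/well in 96-well plates. After attachment they were exposed to compound at 3.3 μM, 10 μM, or 30 μM for 72 h at 37° C. Viability was then assessed by CCK-8 against DMSO vehicle-treated wells.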

For test [4], the system named is A549 (lung adenocarcinoma). Kind of test: Antiproliferative activity (CCK-8 cell viability), A549. The conditions noted are these: Homo sapiens, 72 h; for inhibition at 3.3 µM: Compound concentration: 3.3 μM; for inhibition at 10 µM: Compound concentration: 10 μM; for inhibition at 30 µM: Compound concentration: 30 μM. The gist of the method: as §1
The test system of a further test is HeLa (cervical cancer). Kind of test: Antiproliferative activity (CCK-8 cell viability), HeLa. The settings on record: Homo sapiens, 72 h, read-out: Antiproliferative activity in cancerous cells, HELA (inhibition of cell growth); for inhibition at 3.3 µM: Compound concentration: 3.3 μM; for inhibition at 10 µM: Compound concentration: 10 μM; for inhibition at 30 µM: Compound concentration: 30 μM. The gist of the method:
as §1

Where [5] appears, read: read-out: Antiproliferative activity in cancerous cells, MDA-MB-231 (inhibition of cell growth).
Where [6] appears, read: read-out: Antiproliferative activity in cancerous cells, SW480 (inhibition of cell growth).
Setting [7] is: read-out: Antiproliferative activity in cancerous cells, A431 (inhibition of cell growth).
Where [8] appears, read: read-out: Antiproliferative activity in cancerous cells, A549 (inhibition of cell growth).

As for `CC1=C(CC(=O)O)c2cc(F)ccc2/C1=C\c1cccc(C(F)(F)c2ccccc2)c1` [C301, (Z)-2-(1-(3-(Difluoro(phenyl)methyl)benzylidene)-5-fluoro-2-methyl-1H-inden-3-yl)acetic acid], the inhibition at 3.3 µM in test [1] (setting [5]) was at least 50%; with HepG2 (liver cancer), below 30%; with SW480 (colon cancer) (setting [6]) it was below 30%; in test [2], 30 to 50%; in test [3] (setting [7]) it was below 30%; in test [4] (setting [8]), below 30%. Besides, the inhibition at 3.3 µM in the test on HeLa (cervical cancer) was below 30%. The inhibition at 10 µM in test [1] (setting [5]) is at least 50%; in the test with HepG2 (liver cancer), below 30%; with SW480 (colon cancer) (setting [6]), below 30%; in test [2] it was at least 50%; in test [3] (setting [7]), below 30%; in test [4] (setting [8]), below 30%. Moreover, the inhibition at 10 µM with HeLa (cervical cancer) is at least 50%. The inhibition at 30 µM (in test [1] (setting [5]); in the test on HepG2 (liver cancer); in the test with SW480 (colon cancer) (setting [6]); in test [2]; in test [3] (setting [7]); in test [4] (setting [8])) was at least 50% throughout. Besides, in the test on HeLa (cervical cancer), the inhibition at 30 µM was at least 50%.
For the compound `COc1ccc(C(=O)c2ccc(/C=C3/C(C)=C(CC(=O)O)c4cc(F)ccc43)cc2)cc1` [C306, (Z)-2-(5-Fluoro-1-(4-(4-methoxybenzoyl)benzylidene)-2-methyl-1H-inden-3-yl)acetic acid], the inhibition at 3.3 µM in test [1] (setting [5]) was at least 50%; with HepG2 (liver cancer), 30 to 50%; in the test on SW480 (colon cancer) (setting [6]), 30 to 50%; in test [2] it was below 30%; in test [3] (setting [7]) it was at least 50%; in test [4] (setting [8]), below 30%. Besides, the inhibition at 3.3 µM in the test on HeLa (cervical cancer) was 30 to 50%. The inhibition at 10 µM in test [1] (setting [5]) is at least 50%; with HepG2 (liver cancer), at least 50%; with SW480 (colon cancer) (setting [6]), 30 to 50%; in test [2], at least 50%; in test [3] (setting [7]), at least 50%; in test [4] (setting [8]) it was 30 to 50%. The inhibition at 10 µM in the test with HeLa (cervical cancer) is at least 50%. In addition, the inhibition at 30 µM was at least 50% in test [1] (setting [5]); at least 50% in the test with HepG2 (liver cancer); at least 50% in the test on SW480 (colon cancer) (setting [6]); at least 50% in test [2]; at least 50% in test [3] (setting [7]); 30 to 50% in test [4] (setting [8]). The inhibition at 30 µM in the test with HeLa (cervical cancer) is at least 50%.
Regarding `CC1=C(CC(=O)O)c2c(F)cc(F)cc2/C1=C\c1ccc(C(F)(F)F)cc1` [D5, (Z)-2-(4,6-Difluoro-2-methyl-1-(4-(trifluoromethyl)benzylidene)-1H-inden-3-yl)-acetic acid], the inhibition at 3.3 µM in test [1] (setting [5]) is below 30%; in the test on HepG2 (liver cancer) it was below 30%; with SW480 (colon cancer) (setting [6]) it was below 30%; in test [2] it was below 30%; in test [3] (setting [7]), at least 50%; in test [4] (setting [8]), 30 to 50%. Besides, in the test on HeLa (cervical cancer), the inhibition at 3.3 µM is below 30%. Also, the inhibition at 10 µM in test [1] (setting [5]) was 30 to 50%; with HepG2 (liver cancer) it was below 30%; in the test on SW480 (colon cancer) (setting [6]), below 30%; in test [2] it was at least 50%; in test [3] (setting [7]) it was at least 50%; in test [4] (setting [8]), at least 50%. Further, the inhibition at 10 µM in the test with HeLa (cervical cancer) is at least 50%. The inhibition at 30 µM in test [1] (setting [5]) is at least 50%; with HepG2 (liver cancer), 30 to 50%; in the test with SW480 (colon cancer) (setting [6]), below 30%; in test [2] it was at least 50%; in test [3] (setting [7]), at least 50%; in test [4] (setting [8]), at least 50%. Also, the inhibition at 30 µM with HeLa (cervical cancer) was at least 50%.
For `CC1=C(CC(=O)O)c2cc(F)ccc2/C1=C\c1ccc(OC2CCN(C(=O)OC(C)(C)C)CC2)cc1` [C201, (Z)-2-(1-(4-((1-(Tert-butoxycarbonyl)piperidin-4-yl)oxy)benzylidene)-5-fluoro-2-methyl-1H-inden-3-yl)acetic acid], the inhibition at 3.3 µM was below 30% in test [1] (setting [5]); below 30% with HepG2 (liver cancer); below 30% with SW480 (colon cancer) (setting [6]); below 30% in test [2]; at least 50% in test [3] (setting [7]); below 30% in test [4] (setting [8]). For the same compound, the inhibition at 3.3 µM in the test with HeLa (cervical cancer) is below 30%. The inhibition at 10 µM (in test [1] (setting [5]); in the test on HepG2 (liver cancer); with SW480 (colon cancer) (setting [6]); in test [2]; in test [3] (setting [7]); in test [4] (setting [8])) was at least 50% throughout. The inhibition at 10 µM in the test with HeLa (cervical cancer) is at least 50%. Also, the inhibition at 30 µM (in test [1] (setting [5]); in the test on HepG2 (liver cancer); with SW480 (colon cancer) (setting [6]); in test [2]; in test [3] (setting [7]); in test [4] (setting [8])) was at least 50% each time. In addition, the inhibition at 30 µM in the test on HeLa (cervical cancer) was at least 50%.
As to `CC1=C(CC(=O)O)c2cc(Cl)ccc2/C1=C\c1ccc(COc2ccc(F)cc2)cc1` [B57, (Z)-2-(5-Chloro-1-(4-((4-fluorophenoxy)methyl)benzylidene)-2-methyl-1H-inden-3-yl)acetic acid], the inhibition at 3.3 µM was below 30% in test [1] (setting [5]); below 30% with HepG2 (liver cancer); below 30% in the test on SW480 (colon cancer) (setting [6]); at least 50% in test [2]; 30 to 50% in test [3] (setting [7]); below 30% in test [4] (setting [8]). Also, the inhibition at 3.3 µM in the test with HeLa (cervical cancer) is below 30%. Moreover, the inhibition at 10 µM in test [1] (setting [5]) is below 30%; in the test on HepG2 (liver cancer), 30 to 50%; in the test on SW480 (colon cancer) (setting [6]), below 30%; in test [2] it was 30 to 50%; in test [3] (setting [7]) it was 30 to 50%; in test [4] (setting [8]), below 30%. Besides, the inhibition at 10 µM in the test with HeLa (cervical cancer) is at least 50%. The inhibition at 30 µM was below 30% in test [1] (read-out: Antiproliferative activity in cancerous cells, MDA-MB-231); below 30% with SW480 (colon cancer) (read-out: Antiproliferative activity in cancerous cells, SW480); 30 to 50% in test [3] (read-out: Antiproliferative activity in cancerous cells, A431); below 30% in test [4] (read-out: Antiproliferative activity in cancerous cells, A549).
